Experimental data taken from ChEMBL document CHEMBL3046086, “In-silico design, synthesis and evaluation of novel DNA-gyrase B inhibitors” (2013).

Tests used:
Escherichia coli = assay: Antibacterial activity against Escherichia coli assessed as growth inhibition at 1500 uM after 24 hr by agar well diffusion method; assay type: functional; details: read-out: IZ
Staphylococcus aureus = assay: Antibacterial activity against Staphylococcus aureus assessed as growth inhibition at 1500 uM after 24 hr by agar well diffusion method; assay type: functional; details: read-out: IZ

## Cc1cc(=O)[nH]c2cc(Nc3cccc(C(=O)O)c3)ccc12
Escherichia coli
  zone of inhibition at 1500 µM: 7 mm
Staphylococcus aureus
  zone of inhibition at 1500 µM: 7 mm

## O=C(O)c1cn(C2CC2)c2cc(N3CCNCC3)c(F)cc2c1=O [CIPROFLOXACIN]
Staphylococcus aureus
  zone of inhibition at 1500 µM: 15 mm

## Cc1cc(=O)[nH]c2cc(Nc3ncccc3C(=O)O)ccc12
Escherichia coli
  zone of inhibition at 1500 µM: 4.2 mm
Staphylococcus aureus
  zone of inhibition at 1500 µM: 5 mm

## Cc1cc(=O)[nH]c2cc(Nc3nccnc3C(=O)O)ccc12
Escherichia coli
  zone of inhibition at 1500 µM: 8 mm
Staphylococcus aureus
  zone of inhibition at 1500 µM: 7.5 mm

## Cc1cc(=O)[nH]c2cc(Nc3ccc(C(=O)O)cc3)ccc12
Escherichia coli
  zone of inhibition at 1500 µM: 12.8 mm
Staphylococcus aureus
  zone of inhibition at 1500 µM: 13.5 mm

## Cc1cc(=O)[nH]c2cc(Nc3ccc(C(=O)O)cn3)ccc12
Staphylococcus aureus
  zone of inhibition at 1500 µM: 3 mm

## Cc1cc(O)nc2cc(N)ccc12
Escherichia coli
  zone of inhibition at 1500 µM: 4 mm
Staphylococcus aureus
  zone of inhibition at 1500 µM: 5.5 mm

## Cc1cc(=O)[nH]c2cc(Nc3ccncc3C(=O)O)ccc12
Escherichia coli
  zone of inhibition at 1500 µM: 7 mm
Staphylococcus aureus
  zone of inhibition at 1500 µM: 9 mm

## Cc1cc(=O)[nH]c2cc(Nc3cnc(C(=O)O)cn3)ccc12
Escherichia coli
  zone of inhibition at 1500 µM: 8.5 mm
Staphylococcus aureus
  zone of inhibition at 1500 µM: 9 mm

## Cc1cc(=O)[nH]c2cc(Nc3ccccc3C(=O)O)ccc12
Escherichia coli
  zone of inhibition at 1500 µM: 7 mm
Staphylococcus aureus
  zone of inhibition at 1500 µM: 8 mm
